Results reported in ChEMBL document CHEMBL5104162, “Potent inhibitory activity of hydroxylated 2-benzylidene-3,4-dihydronaphthalen-1(2H)-ones on LPS-stimulated reactive oxygen species production in RAW 264.7 macrophages” (Bioorg Med Chem Lett, 2022).

Tests used:
[1] = Cytotoxicity against mouse RAW264.7 cells assessed as cell viability at 10 uM by MTS assay relative to control
RAW264.7 = assay: Inhibition of ROS production in LPS-induced mouse RAW264.7 cells; assay type: functional, cell-based

Structure (SMILES) | viability at 10 µM [1] [%] | IC50 (RAW264.7) [nM]
O=C1/C(=C/c2ccc(O)cc2)CCc2cc(O)ccc21 | < 90 | –
O=C1/C(=C/c2ccncc2)CCc2ccc(O)cc21 | > 90 | 2340
O=C1/C(=C/c2ccccc2Br)CCc2cc(O)ccc21 | > 90 | 1070
O=C1/C(=C/c2cccc(O)c2)CCc2c(O)cccc21 | < 90 | –
O=C1/C(=C/c2ccccc2)CCc2c(O)cccc21 | < 90 | –
O=C1/C(=C/c2ccc(O)cc2)CCc2ccc(O)cc21 | < 90 | –
O=C1/C(=C/c2ccc(Cl)cc2)CCc2cc(O)ccc21 | > 90 | 2480
O=C1/C(=C/c2cccc(F)c2)CCc2ccc(O)cc21 | > 90 | 830
O=C1/C(=C/c2ccc(F)cc2)CCc2cc(O)ccc21 | > 90 | 1370
O=C1/C(=C/c2cccc(OC(F)(F)F)c2)CCc2cc(O)ccc21 | > 90 | 520
O=C1/C(=C/c2ccc(Br)cc2)CCc2cc(O)ccc21 | > 90 | 1520
O=C1/C(=C/c2ccccc2OC(F)(F)F)CCc2cc(O)ccc21 | < 90 | –
O=C1/C(=C/c2ccccc2Br)CCc2ccc(O)cc21 | > 90 | 500
O=C1/C(=C/c2ccccc2C(F)(F)F)CCc2cc(O)ccc21 | < 90 | –
O=C1/C(=C/c2ccc(Br)cc2)CCc2ccc(O)cc21 | > 90 | 800
O=C1/C(=C/c2cccc(C(F)(F)F)c2)CCc2c(O)cccc21 | > 90 | 1970
O=C1/C(=C/c2cccc(OC(F)(F)F)c2)CCc2c(O)cccc21 | < 90 | –
O=C1/C(=C/c2ccc(C(F)(F)F)cc2)CCc2cc(O)ccc21 | > 90 | 3260
O=C1/C(=C/c2ccccc2Cl)CCc2ccc(O)cc21 | > 90 | 270
O=C1/C(=C/c2ccc(O)cc2)CCc2c(O)cccc21 | < 90 | –
O=C1/C(=C/c2cccnc2)CCc2ccc(O)cc21 | > 90 | 3040
O=C1/C(=C/c2cccc(Br)c2)CCc2c(O)cccc21 | > 90 | 1700

Structure (SMILES) | viability at 10 µM [1] [%] | IC50 (RAW264.7) [nM]
O=C1/C(=C/c2ccc(F)cc2)CCc2ccc(O)cc21 | > 90 | 840
O=C1/C(=C/c2ccccc2Cl)CCc2c(O)cccc21 | > 90 | 1280
O=C1/C(=C/c2ccc(C(F)(F)F)cc2)CCc2ccc(O)cc21 | > 90 | > 10000
O=C1/C(=C/c2ccccc2F)CCc2cc(O)ccc21 | > 90 | 1740
O=C1/C(=C/c2cccc(Br)c2)CCc2ccc(O)cc21 | > 90 | 480
O=C1/C(=C/c2ccccc2C(F)(F)F)CCc2ccc(O)cc21 | > 90 | 1020
O=C1/C(=C/c2ccc(Cl)cc2)CCc2c(O)cccc21 | < 90 | –
O=C1/C(=C/c2ccccn2)CCc2c(O)cccc21 | > 90 | 740
O=C1/C(=C/c2ccc(OC(F)(F)F)cc2)CCc2c(O)cccc21 | < 90 | –
O=C1/C(=C/c2ccccc2)CCc2ccc(O)cc21 | > 90 | 710
O=C1/C(=C/c2ccccn2)CCc2cc(O)ccc21 | > 90 | > 10000
O=C1/C(=C/c2cccc(Cl)c2)CCc2ccc(O)cc21 | > 90 | 210
O=C1/C(=C/c2ccc(OC(F)(F)F)cc2)CCc2cc(O)ccc21 | > 90 | 1350
O=C1/C(=C/c2ccccc2F)CCc2c(O)cccc21 | < 90 | –
O=C1/C(=C/c2cccc(Cl)c2)CCc2c(O)cccc21 | < 90 | –
O=C1/C(=C/c2cccnc2)CCc2c(O)cccc21 | > 90 | 2950
O=C1/C(=C/c2ccc(Br)cc2)CCc2c(O)cccc21 | < 90 | –
O=C1/C(=C/c2ccccc2O)CCc2c(O)cccc21 | < 90 | –
O=C1/C(=C/c2cccc(F)c2)CCc2cc(O)ccc21 | > 90 | 1230
O=C1/C(=C/c2cccc(C(F)(F)F)c2)CCc2cc(O)ccc21 | > 90 | 180
O=C1/C(=C/c2ccccc2Br)CCc2c(O)cccc21 | > 90 | 1240
O=C1/C(=C/c2cccc(O)c2)CCc2cc(O)ccc21 | > 90 | 3510

Structure (SMILES) | viability at 10 µM [1] [%] | IC50 (RAW264.7) [nM]
O=C1/C(=C/c2ccc(F)cc2)CCc2c(O)cccc21 | < 90 | –
O=C1/C(=C/c2ccccc2F)CCc2ccc(O)cc21 | > 90 | 1350
O=C1/C(=C/c2ccccc2Cl)CCc2cc(O)ccc21 | > 90 | 1910
O=C1/C(=C/c2ccccc2)CCc2cc(O)ccc21 | > 90 | 1320
O=C1/C(=C/c2cccc(OC(F)(F)F)c2)CCc2ccc(O)cc21 | < 90 | –
O=C1/C(=C/c2cccnc2)CCc2cc(O)ccc21 | > 90 | 2030
O=C1/C(=C/c2cccc(C(F)(F)F)c2)CCc2ccc(O)cc21 | < 90 | –
O=C1/C(=C/c2ccc(OC(F)(F)F)cc2)CCc2ccc(O)cc21 | > 90 | 980
O=C1/C(=C/c2ccc(Cl)cc2)CCc2ccc(O)cc21 | > 90 | 1100
O=C1/C(=C/c2cccc(Br)c2)CCc2cc(O)ccc21 | > 90 | 1140
O=C1/C(=C/c2ccccc2OC(F)(F)F)CCc2c(O)cccc21 | < 90 | –
O=C1/C(=C/c2ccccc2O)CCc2ccc(O)cc21 | < 90 | –
O=C1/C(=C/c2ccc(C(F)(F)F)cc2)CCc2c(O)cccc21 | < 90 | –
O=C1/C(=C/c2ccccc2O)CCc2cc(O)ccc21 | > 90 | 550
O=C1/C(=C/c2ccccn2)CCc2ccc(O)cc21 | < 90 | –
O=C1/C(=C/c2ccccc2OC(F)(F)F)CCc2ccc(O)cc21 | > 90 | 420
O=C1/C(=C/c2cccc(O)c2)CCc2ccc(O)cc21 | > 90 | 810
O=C1/C(=C/c2cccc(F)c2)CCc2c(O)cccc21 | < 90 | –
O=C1/C(=C/c2ccccc2C(F)(F)F)CCc2c(O)cccc21 | > 90 | 3830
O=C1/C(=C/c2cccc(Cl)c2)CCc2cc(O)ccc21 | > 90 | 1750
O=C1/C(=C/c2ccncc2)CCc2c(O)cccc21 | > 90 | 4170
